Reference: PMC6556873, “Rapid Covalent-Probe Discovery by Electrophile-Fragment Screening” (Journal of the American Chemical Society, 2019)
Where two headings read alike, the source gives them in different places.

Assays:
BSA = molecular target: T1, BSA (Bos taurus, UniProt P02769); design: Intact protein LC/MS covalent labelling, fragments in pools of five, 200 uM each, 4 °C; details: 24 h, 4 °C, pool of five; 200 µM; covalent
T1 construct: gene ALB

NUDT7 = molecular target: T2, NUDT7 (Homo sapiens, UniProt P0C024); design: Intact protein LC/MS covalent labelling, fragments in pools of five, 200 uM each, 4 °C; details: 24 h, 4 °C, pool of five; 200 µM; covalent
T2 construct: residues 14-235, E. coli, pNIC28-Bsa4, N-terminal His6 tag removed by TEV, construct 26672 Da
T2 sequence (P0C024 14-235): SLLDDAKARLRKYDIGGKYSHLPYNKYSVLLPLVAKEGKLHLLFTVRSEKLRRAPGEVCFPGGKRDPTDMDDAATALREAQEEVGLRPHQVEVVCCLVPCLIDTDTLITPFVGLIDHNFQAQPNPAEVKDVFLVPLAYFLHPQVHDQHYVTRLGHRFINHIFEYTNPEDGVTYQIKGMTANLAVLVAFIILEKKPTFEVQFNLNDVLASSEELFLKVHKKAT

OTUB2 (OTUB2A) = molecular target: T3, OTUB2 (OTUB2A) (Homo sapiens, UniProt Q96DC9); design: Intact protein LC/MS covalent labelling, fragments in pools of five, 200 uM each, 4 °C; details: 24 h, 4 °C, pool of five; 200 µM; covalent
T3 construct: full length residues 1-234, E. coli BL21(DE3)-R3, His tag removed by TEV, construct 27312 Da
T3 sequence (Q96DC9 1-234): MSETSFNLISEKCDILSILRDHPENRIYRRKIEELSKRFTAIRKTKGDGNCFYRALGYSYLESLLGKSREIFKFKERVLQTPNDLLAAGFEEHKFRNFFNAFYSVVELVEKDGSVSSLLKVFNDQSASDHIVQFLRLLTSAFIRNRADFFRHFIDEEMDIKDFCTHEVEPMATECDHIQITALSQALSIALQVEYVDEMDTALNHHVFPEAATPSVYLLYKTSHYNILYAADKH

PCAF = molecular target: T4, PCAF (Homo sapiens, UniProt Q92831); design: Intact protein LC/MS covalent labelling, fragments in pools of five, 200 uM each, 4 °C; details: 24 h, 4 °C, pool of five; 200 µM; covalent
T4 construct: gene KAT2B
T4 sequence (Q92831 whole entry, the tested form may be a part): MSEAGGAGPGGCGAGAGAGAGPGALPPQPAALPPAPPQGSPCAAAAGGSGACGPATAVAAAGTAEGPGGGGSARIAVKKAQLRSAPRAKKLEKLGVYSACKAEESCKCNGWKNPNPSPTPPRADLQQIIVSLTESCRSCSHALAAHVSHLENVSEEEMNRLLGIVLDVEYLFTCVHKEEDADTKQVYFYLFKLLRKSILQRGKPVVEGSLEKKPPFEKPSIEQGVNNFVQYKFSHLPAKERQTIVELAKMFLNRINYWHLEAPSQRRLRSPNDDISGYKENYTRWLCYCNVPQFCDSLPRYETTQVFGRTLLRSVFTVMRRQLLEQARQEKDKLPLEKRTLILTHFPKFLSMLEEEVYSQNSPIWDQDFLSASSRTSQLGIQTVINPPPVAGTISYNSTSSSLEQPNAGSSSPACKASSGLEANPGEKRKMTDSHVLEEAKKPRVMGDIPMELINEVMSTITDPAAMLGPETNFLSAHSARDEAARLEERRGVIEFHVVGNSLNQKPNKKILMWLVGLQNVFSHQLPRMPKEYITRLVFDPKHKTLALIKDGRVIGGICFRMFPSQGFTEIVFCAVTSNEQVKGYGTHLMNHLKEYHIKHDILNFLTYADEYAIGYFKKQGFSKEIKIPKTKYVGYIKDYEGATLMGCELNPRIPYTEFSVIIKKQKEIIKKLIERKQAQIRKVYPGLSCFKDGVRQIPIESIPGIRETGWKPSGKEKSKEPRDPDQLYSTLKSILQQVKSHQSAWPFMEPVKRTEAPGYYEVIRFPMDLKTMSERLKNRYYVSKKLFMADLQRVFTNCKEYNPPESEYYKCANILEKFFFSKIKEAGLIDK

in vitro [1] = assay: in vitro; design: species or system CCD841, HEK293; details: human, hb2 cells, read-out: HB-2 Cells Viability (%)
in vitro [2] = assay: in vitro; design: species or system HB2, HEK293; details: human, ccd841 cells
in vitro [3] = assay: in vitro; design: species or system HB2, CCD841; details: human, hek293 cells

T1 sequence (P02769 whole entry, the tested form may be a part): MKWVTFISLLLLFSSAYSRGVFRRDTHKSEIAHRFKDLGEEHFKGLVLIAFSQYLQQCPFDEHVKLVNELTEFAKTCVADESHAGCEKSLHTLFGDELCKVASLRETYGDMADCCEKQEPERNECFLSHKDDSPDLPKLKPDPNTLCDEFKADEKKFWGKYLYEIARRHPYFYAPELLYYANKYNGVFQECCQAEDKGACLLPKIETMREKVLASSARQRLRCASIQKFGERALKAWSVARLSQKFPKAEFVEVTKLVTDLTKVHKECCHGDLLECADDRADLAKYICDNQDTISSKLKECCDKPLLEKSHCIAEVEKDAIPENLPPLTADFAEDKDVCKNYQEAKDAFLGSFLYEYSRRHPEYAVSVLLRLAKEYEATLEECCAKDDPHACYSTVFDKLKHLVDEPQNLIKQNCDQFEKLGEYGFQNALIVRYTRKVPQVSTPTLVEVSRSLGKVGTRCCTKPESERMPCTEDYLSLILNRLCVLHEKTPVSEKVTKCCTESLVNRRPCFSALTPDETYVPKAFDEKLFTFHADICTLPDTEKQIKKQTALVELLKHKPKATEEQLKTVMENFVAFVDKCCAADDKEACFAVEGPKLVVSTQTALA

| Structure (SMILES) | BSA (BSA) | NUDT7 (NUDT7) | OTUB2 (OTUB2 (OTUB2A)) | PCAF (PCAF) | viability at 48 h, 10 µM (in vitro [1]) [%] | viability at 48 h, 10 µM (in vitro [2]) [%] | viability at 48 h, 10 µM (in vitro [3]) [%] |
| --- | --- | --- | --- | --- | --- | --- | --- |
| CC1CC(C)CN(C(=O)CCl)C1 (stereo not shown) [PCM-0102789] | 0 | 0 | 0.08 | 0 | 102 | 83.1 | 61.8 |
| O=C1CC(C(F)(F)F)N(C(=O)CCl)c2ccccc2N1 (stereo not shown) [PCM-0102363] | 0.1 | 0.28 | 0 | 0 | 59.3 | 74.6 | 40.4 |
| C=CC(=O)NCC1C2Cc3ccccc3C12 (stereo not shown) [PCM-0102769] | 0 | 0 | 0.21 | 0 | 94.3 | 97.5 | 79.1 |
| Cc1ccc(N(C(=O)CCl)C2C=CS(=O)(=O)C2)cc1 (stereo not shown) [PCM-0102539] | 0 | 0.33 | 0.16 | 0 | 23.3 | 31.5 | 4.7 |
| CC(NC(=O)CCl)c1ccc2c(c1)OCCO2 (stereo not shown) [PCM-0102342] | 0 | 0.08 | 0.57 | 0 | 93.8 | 87.2 | 73.1 |
| Cc1noc(C)c1CNC(=O)CCl [PCM-0102780] | 0 | 0.11 | 0 | 0 | 102 | 94.9 | 101 |
| CC(=O)c1ccc(N2CCN(C(=O)CCl)CC2)c(F)c1 [PCM-0102273] | 0 | 0.2 | 0 | 0 | 4.9 | 38.5 | 2.2 |
| O=C(CCl)N1CCC2(CC1)OCCO2 [PCM-0102823] | 0 | 0 | 0 | 0 | 98.2 | 99.2 | 91.5 |
| Cl.O=C(CCl)N1CCN(Cc2ccsc2)CC1 [PCM-0102739] | 0 | 0.07 | 0 | 0 | 55.2 | 85.9 | 42.7 |
| Cl.O=C(CCl)N1CCN(CC(=O)N2CCOCC2)CC1 [PCM-0102133] | 0 | 0 | 0.15 | 0 | 96.6 | 94.8 | 92.7 |
| O=C(CCl)N1CCOC(c2ccc(F)cc2)C1 (stereo not shown) [PCM-0102615] | 0 | 0 | 0 | 0 | 2 | 12.6 | 4.8 |
| O=C(CCl)Nc1nc2c(F)c(F)c(F)cc2s1 [PCM-0102144] | 0.12 | 0.32 | 0 | 0 | 90.9 | 57.9 | 83.1 |
| C=CC(=O)N1CCCC(c2nc(-c3cccc(F)c3)no2)C1 (stereo not shown) [PCM-0102689] | 0 | 0 | 0 | 0 | 101 | 97.4 | 89.4 |
| Cc1ccc(N(C(=O)CCl)C2C=CS(=O)(=O)C2)cc1C (stereo not shown) [PCM-0103082] | 0 | 0.15 | 0 | 0 | 19.6 | 10.5 | 4.1 |
| CC(C)(C)c1cc(NC(=O)CCl)on1 [PCM-0102348] | 0 | 0 | 0 | 0 | 32.8 | 59.9 | 60.9 |
| O=C(CCl)Nc1ccc(F)c(Cl)c1 [PCM-0102217] | 0.13 | 0 | 0.14 | 0 | 2.5 | 18.8 | 1.1 |
